Patent US9233109B2, “Compositions, methods of use, and methods of treatment” (UNIVERSITY OF FLORIDA RESEARCH FOUNDATION, INC., priority 2010, dated 2016)
Read-outs that look alike come from different tables or passages of the source.

Experiments:
[1] = target: T1, α4β2α5 nAChR (Homo sapiens, UniProt P17787+P30532+P43681); experiment: Agonist activation of α4β2α5 receptors in oocytes; assay type: cell-based
T1 construct: expressed in transfected cells; host or cells: Xenopus laevis oocytes injected with cRNA
Description: (§1) Recently, attention has been drawn to α5 as a member of a gene cluster associated with high risk for cancer and heavy smoking (Saccone et al., 2007). In the periphery, α5 is most likely expressed in association with the other members of its gene cluster, α3 and β4.

[2] = preliminary findings of clinical trials, schizophrenics; cited from earlier work
[3] = target: T2, HS α4β2 (α4(2)β2(3)) nAChR (Homo sapiens, UniProt P17787+P43681); experiment: Bath application of test compound: inhibition of ACh-evoked peak currents in Xenopus oocytes; assay type: cell-based
T2 construct: expressed in transfected cells; host or cells: Xenopus laevis oocytes injected with cRNA
Description: (§2) We have extended this approach to defined receptor subtypes expressed in Xenopus oocytes. Experiments were conducted on cells expressing HS α4β2 (α4(2)β2(3)), LS α4β2 (α4(3)β2(2)), or α7 nAChR.
(§3) cDNA: Human nAChR receptor clones and concatamers were obtained from Dr. Jon Lindstrom (University of Pennsylvania, Philadelphia Pa.). The human RIC-3 clone, obtained from Dr. Millet Treinin (Hebrew University, Jerusalem Israel), was co-injected with α7 to improve the levels and speed of receptor expression.
(§4) Oocyte preparation: Oocytes were surgically removed from mature Xenopus laevis frogs and injected with 50 nl (5-20 ng) of appropriate nAChR subunit cRNAs as described previously (Horenstein et al., 2008).
(§5) Experiments were conducted using OpusXpress 6000A (Molecular Devices, Union City Calif.) and analyzed as described previously (Papke and Papke, 2002; Horenstein et al., 2008; Papke and Stokes, 2010).
(§6) Initial experiments were run for 50 minutes after the introduction of the experimental compounds into the bath.

[4] = target: T3, LS α4β2 (α4(3)β2(2)) nAChR (Homo sapiens, UniProt P17787+P43681); experiment: as above; assay type: cell-based
T3 construct: expressed in transfected cells; host or cells: Xenopus laevis oocytes injected with cRNA
Description: as §2, §3, §4, §5, §6

[5] = target: T4, α7 nAChR (Homo sapiens, UniProt P36544); experiment: Bath application of test compound: modulation of ACh-evoked net charge responses in Xenopus oocytes; assay type: cell-based
T4 construct: expressed in transfected cells; host or cells: Xenopus laevis oocytes injected with cRNA
Description: as §2, §3, §4, §5, §6

[6] = target: human α7 receptors (Homo sapiens, UniProt P36544); details: cited from earlier work
[7] = target: T4, α7 nAChR; experiment: Acute co-application of ACh and S 24795, model fit of net charge responses in oocytes; assay type: cell-based
Description: (§7) FIG. 2.1 illustrates a model applied to the activation of nAChR by simultaneous co-applications of the full agonist “a” and a partial agonist “p”. […] The IMax of the full agonist is assigned a value of 1. The first and second terms of the equation represent the activation produced by the full agonist and partial agonists, respectively, scaled by their potencies and weighted by receptor availability. The third term allows noncompetitive effects of the partial agonist. If such noncompetitive activity is inhibitory, then ni is assigned a negative value.
(§8) Acute responses to agonist/partial agonist applications were fit with a general non-linear regression model, implemented as an option in a Windows data analyses and graphical presentation program (CAS Data Forge). The terms na, np, ni, Rmaxp, Inmaxp, EC50a, EC50p, and IC50p were given starting estimates based on the data obtained with the drugs applied separately. Tolerance factor (typically 1×10^−5) range limits for each parameter were specified. […] A predicted matrix was then calculated for each cell of the matrix, based on the a and p concentrations, the set of parameters listed above, and the governing equation. The residuals across all cells were calculated, and an iterative process was utilized to revise the parameters to minimize the residuals and allow the estimates to be revised accordingly. When the difference of estimates for any given parameter for consecutive iterations fell below the tolerance factor, that parameter was fixed at the last estimate. When all parameters were fixed or no convergent solution was found, the process stopped, and the set of parameters representing the best fit along with the resulting matrix was provided.
(§9) The Imax for the full agonist was constrained to 1 while the Imax for the partial agonist was a free parameter <1.0.
(§10) Curve fit values for the drugs when applied alone were used as seeds for the competitive interactions.

[8] = target: T5, α4(3)β2(2) nAChR (Homo sapiens, UniProt P17787+P43681); experiment: Acute co-application of ACh and cytisine, model fit of peak current responses in oocytes; assay type: cell-based
T5 construct: expressed in transfected cells; host or cells: Xenopus laevis oocytes injected with cRNA
Description: as §7, §8, §9, §10

[9] = target: T5, α4(3)β2(2) nAChR; experiment: Mecamylamine-sensitive steady-state activation during bath application, oocytes; assay type: cell-based; details: bath concentration 300 nM
Description: (§11) In our bath application experiments we frequently saw small responses at the beginning of the bath applications, and sometimes there were significant shifts in baseline holding current that occurred over the long periods of recording. While increases in baseline current would be consistent with the stimulation of steady-state currents, baseline shifts can occur for other reasons as well, especially if the quality of the voltage clamp diminished over a long period of recording.
(§12) Even after just 30 minutes of continual bath application, a large shift in baseline was apparent. […] Table 3 provides a summary of the mecamylamine-sensitive steady-state currents measured for each of the drug-receptor combinations associated with drifting baselines.

[10] = target: T6, α4(2)β2(3) nAChR (Homo sapiens, UniProt P17787+P43681); experiment: as above; assay type: cell-based; details: bath concentration 100 nM
T6 construct: expressed in transfected cells; host or cells: Xenopus laevis oocytes injected with cRNA
Description: as §11, §12

[11] = target: T7, α4(2)β2(2)α5 nAChR (Homo sapiens, UniProt P17787+P30532+P43681); experiment: as above; assay type: cell-based; details: bath concentration 1 μM
T7 construct: expressed in transfected cells; host or cells: Xenopus laevis oocytes injected with cRNA
Description: as §11, §12

[12] = Mineur et al., 2009; cited from earlier work
[13] = target: T7, α4(2)β2(2)α5 nAChR; experiment: Bath application of test compound: inhibition of ACh-evoked responses in Xenopus oocytes; assay type: cell-based
Description: as §3, §4, §5, §6, §1

[14] = test system: α4β2 receptors; details: cited from earlier work
[15] = read-out: IC50, inhibition of ACh-evoked responses by prolonged bath application
[16] = noncompetitive inhibition factor
[17] = noncompetitive inhibition factor, read-out: Inhibition IC50 of the partial agonist (best fit)
[18] = relative to ACh maximum, ACh constrained to 1
[19] = IC50, inhibition of ACh-evoked responses by prolonged bath application
[20] = IC50 for the inhibition of ACh evoked responses by bath applications of agonists and partial agonists

T1 sequence (P17787 26-502): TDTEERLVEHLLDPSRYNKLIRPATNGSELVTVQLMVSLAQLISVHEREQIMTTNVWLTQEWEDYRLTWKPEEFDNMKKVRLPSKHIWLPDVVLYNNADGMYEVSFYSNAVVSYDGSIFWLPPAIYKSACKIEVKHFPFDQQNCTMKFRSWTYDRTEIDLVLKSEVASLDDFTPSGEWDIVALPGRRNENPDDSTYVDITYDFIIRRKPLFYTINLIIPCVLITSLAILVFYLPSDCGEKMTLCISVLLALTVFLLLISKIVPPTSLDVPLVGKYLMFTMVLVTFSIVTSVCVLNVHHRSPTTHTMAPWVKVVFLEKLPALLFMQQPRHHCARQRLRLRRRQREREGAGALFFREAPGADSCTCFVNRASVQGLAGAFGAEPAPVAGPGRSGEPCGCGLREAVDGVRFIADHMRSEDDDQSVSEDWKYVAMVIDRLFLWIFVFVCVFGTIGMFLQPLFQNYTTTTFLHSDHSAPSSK
T1 sequence (P43681 29-627 limits assumed): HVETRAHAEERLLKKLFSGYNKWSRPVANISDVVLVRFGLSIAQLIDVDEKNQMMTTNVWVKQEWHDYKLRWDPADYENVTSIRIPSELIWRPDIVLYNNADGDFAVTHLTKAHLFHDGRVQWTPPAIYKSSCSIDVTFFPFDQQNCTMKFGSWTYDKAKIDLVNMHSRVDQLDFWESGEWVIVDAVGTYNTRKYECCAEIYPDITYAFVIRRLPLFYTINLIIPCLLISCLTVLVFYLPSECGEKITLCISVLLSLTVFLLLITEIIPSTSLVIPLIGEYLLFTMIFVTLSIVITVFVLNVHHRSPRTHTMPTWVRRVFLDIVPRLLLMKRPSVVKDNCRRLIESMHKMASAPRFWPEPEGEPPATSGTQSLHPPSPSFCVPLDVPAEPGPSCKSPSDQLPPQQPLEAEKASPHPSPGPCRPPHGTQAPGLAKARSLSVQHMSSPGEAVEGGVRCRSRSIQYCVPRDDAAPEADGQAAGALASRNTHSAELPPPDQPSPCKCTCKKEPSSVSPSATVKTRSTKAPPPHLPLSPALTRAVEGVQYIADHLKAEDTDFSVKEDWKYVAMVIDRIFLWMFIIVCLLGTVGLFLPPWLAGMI
T1 sequence (P30532 23-468): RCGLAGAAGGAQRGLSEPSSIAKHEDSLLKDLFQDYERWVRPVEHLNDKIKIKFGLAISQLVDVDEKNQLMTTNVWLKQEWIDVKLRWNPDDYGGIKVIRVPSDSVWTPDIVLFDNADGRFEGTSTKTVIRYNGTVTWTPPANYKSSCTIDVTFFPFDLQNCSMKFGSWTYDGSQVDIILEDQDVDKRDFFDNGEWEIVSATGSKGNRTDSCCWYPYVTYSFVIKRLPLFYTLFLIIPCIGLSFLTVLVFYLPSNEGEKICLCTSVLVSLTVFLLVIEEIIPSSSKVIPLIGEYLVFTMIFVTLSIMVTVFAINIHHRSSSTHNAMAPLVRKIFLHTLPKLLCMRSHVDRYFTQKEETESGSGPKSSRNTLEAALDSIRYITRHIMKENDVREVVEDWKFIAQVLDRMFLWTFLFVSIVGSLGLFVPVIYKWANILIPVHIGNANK
T5 sequence (P17787 26-502): as the sequence (P17787 26-502) above
T5 sequence (P43681 29-627 limits assumed): as the sequence (P43681 29-627 limits assumed) above
T5 sequence (P43681 29-627 limits assumed): as above
T2 sequence (P17787 26-502): as the sequence (P17787 26-502) above
T2 sequence (P43681 29-627 limits assumed): as the sequence (P43681 29-627 limits assumed) above
T2 sequence (P17787 26-502): as the sequence (P17787 26-502) above
T3 sequence (P17787 26-502): as above
T3 sequence (P43681 29-627 limits assumed): as the sequence (P43681 29-627 limits assumed) above
T3 sequence (P43681 29-627 limits assumed): as above
T4 sequence (P36544 23-502): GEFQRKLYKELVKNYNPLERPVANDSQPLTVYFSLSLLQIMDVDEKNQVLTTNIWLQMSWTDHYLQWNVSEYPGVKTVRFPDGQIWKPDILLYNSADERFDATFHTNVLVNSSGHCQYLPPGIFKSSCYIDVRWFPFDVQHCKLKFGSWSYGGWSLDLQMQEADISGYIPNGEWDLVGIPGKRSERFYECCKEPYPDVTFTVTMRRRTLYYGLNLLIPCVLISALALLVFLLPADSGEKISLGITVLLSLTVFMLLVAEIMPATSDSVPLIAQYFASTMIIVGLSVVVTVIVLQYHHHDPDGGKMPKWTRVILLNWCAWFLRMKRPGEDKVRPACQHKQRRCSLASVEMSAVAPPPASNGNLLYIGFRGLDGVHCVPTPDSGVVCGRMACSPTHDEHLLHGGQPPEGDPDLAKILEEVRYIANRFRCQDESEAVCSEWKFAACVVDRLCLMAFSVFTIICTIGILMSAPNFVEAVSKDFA
T7 sequence (P17787 26-502): as the sequence (P17787 26-502) above
T7 sequence (P43681 29-627 limits assumed): as the sequence (P43681 29-627 limits assumed) above
T7 sequence (P30532 23-468): as the sequence (P30532 23-468) above
human α7 receptors, sequence (P36544 23-502): as the sequence (P36544 23-502) above
T6 sequence (P17787 26-502): as the sequence (P17787 26-502) above
T6 sequence (P43681 29-627 limits assumed): as the sequence (P43681 29-627 limits assumed) above
T6 sequence (P17787 26-502): as the sequence (P17787 26-502) above

Compound: CN1CCCC1c1cccnc1 (stereo not shown) [Nicotine, nicotine]
- efficacy for α4β2α5 receptors, % that of ACh [1]: approximately 35%

Compound: COc1ccc(/C=C2\CCCN=C2c2cccnc2)c(OC)c1 [GTS-21, 3-(2,4-dimethoxybenzylidene)anabaseine]
- clinical ratings of negative symptoms [2]: improved clinical ratings of negative symptoms
- IC50 [3, 15]: 0.17 ± 0.1 µM
- IC50 [4, 15]: 1 ± 0.4 µM
- IC50 [5]: 1.3 µM
- IC50 ([5]; Example 1, average of 30-40 min time points, 60 μM ACh, net charge, read-out: IC50, inhibition of ACh-evoked responses by prolonged bath application): 1.2 ± 0.4 µM
- α7 ACh-evoked responses above the baseline controls ([5]; bath application of 30 nM): 37±15%
- bath concentrations at which α7 ACh-evoked responses were inhibited ([5]; long-term bath application, net charge): greater than 300 nM
- EC50 ([6]; Papke and Papke, 2002, read-out: EC50 for transient receptor activation): ~6 µM
- efficacy for human α7 receptors, % that of ACh [6]: about 20%

Compound: C[n+]1ccccc1CC(=O)c1ccc(Br)cc1 [S 24795, 2-[2-(4-bromophenyl)-2-oxoethyl]-1-methylpyridinium]
- Activation n (Hill coefficient, best fit) [7]: 0.85
- best fit IC50 relative to EC50 (higher) [7]: 70 fold
- EC50 ([7]; net charge, read-out: Activation EC50 (best fit)): 14 µM
- Inhibition Inmax of the partial agonist (best fit) [7, 16]: 1.0
- Inhibition n (Hill coefficient, best fit) [7, 16]: 0.26
- IC50 [7, 17]: 1000 µM
- Activation Rmax (best fit) [7, 18]: 0.20
- IC50 ([3]; read-out: IC50 for the inhibition of ACh evoked responses by bath applications of agonists and partial agonists, Table 2, after 30±4 min bath application, 10 μM ACh): 53 µM
- IC50 ([4]; read-out: IC50 for the inhibition of ACh evoked responses by bath applications of agonists and partial agonists, Table 2, after 30±4 min bath application, 30 μM ACh): 36 µM
- IC50 ([5]; read-out: IC50 for the inhibition of ACh evoked responses by bath applications of agonists and partial agonists, Table 2, after 30±4 min bath application, 60 μM ACh, * = inhibition following a phase of potentiation): 15 µM

Compound: O=c1cccc2n1C[C@@H]1CNC[C@H]2C1 [Cytisine, cytisine]
- Activation n (Hill coefficient, best fit) [8]: 0.61
- best fit IC50 relative to EC50 [8]: three-fold lower
- Inhibition Inmax of the partial agonist (best fit) [8, 16]: 0.7
- Inhibition n (Hill coefficient, best fit) [8, 16]: 1.7
- IC50 [8, 17]: 32 µM
- EC50 ([8]; peak current, read-out: Activation EC50 (best fit)): 88 µM
- Activation Rmax (best fit) [8, 18]: 0.35
- Mecamylamine-sensitive steady-state activation relative to ACh maximum evoked transient responses [9]: 1.1 ± 0.2%
- Mecamylamine-sensitive steady-state activation relative to ACh maximum evoked transient responses [10]: 1.4 ± 0.1%
- Mecamylamine-sensitive steady-state activation relative to ACh maximum evoked transient responses [11]: 2.5 ± 0.5%
- IC50 [3]: 0.008 ± 0.005 µM
- IC50 [4, 19]: 0.085 ± 0.044 µM
- IC50 [4, 20]: 0.027 ± 0.014 µM
- potency at reducing immobility compared with mecamylamine [12]: equipotent as the pure antagonist mecamylamine
- IC50 [5, 19]: 0.3 ± 0.2 µM
- IC50 [5, 20]: 1.2 µM
- IC50 [13]: 0.0032 ± 0.0016 µM
- EC50 [1]: 0.018 ± 0.009 µM
- efficacy for α4β2α5 receptors, % that of ACh [1]: 6±1%
- efficacy for α4β2 receptors, % that of ACh [14]: < 20%
